Test results taken from publication PMC12524408 (International Journal of Molecular Sciences, 2025).
No end group written: not given here.

Experiments:
DSS-induced colitis = settings: cited from earlier work; for Therapeutic effect in colitis: 25 nmol/kg subcutaneously, previous studies
Experimental: Nevertheless, the 25 nmol/kg dose was selected for further evaluation (Figure 5). […] The in vivo pharmacological studies were conducted by a contract research organization (CRO), LSI Medience Ltd. (Kumamoto, Japan), and were not in an academic setting. Although the studies were conducted professionally, a blinded evaluation was not implemented, which may have introduced bias. Additionally, histological analysis of the colonic tissue was not performed. […] Future pharmacologi ...

[1] = Stability (degradation) in human serum; assay type: in vitro ADME; settings: pooled human serum, 100 μL in 200 μL (10 mM NaH2PO4 pH 7.1, 100 mM NaCl), 37 °C, 60 min; fluorescence immunoassay; mean, n = 3; read-out: % remaining in human serum after 60 min
Text: Error bars are shorter than the symbol size.

remaining at 1 h [1] [%]	Compound	Therapeutic effect in colitis (DSS-induced colitis)	Histological analysis of colonic tissue (DSS-induced colitis; previous study)
	20 kDa PEGylated AM ({PEG 20 kDa}-YRQSMNNFQGLRSFGCRFGTCTVQKLAHQIYQFTDKDKDNVAPRSKISPQGY; ends and bridges not checked; UniProt P35318 95-146, looked up) [20 k PEG-AM]	significant therapeutic effects	histological improvements were observed, but were not statistically significant
	60 kDa PEGylated AM ({PEG 60 kDa}-YRQSMNNFQGLRSFGCRFGTCTVQKLAHQIYQFTDKDKDNVAPRSKISPQGY; ends and bridges not checked; UniProt P35318 95-146, looked up) [60 k PEG-AM]	significant therapeutic effects	
9.45	CC[C@H](C)[C@H](NC(=O)[C@H](CCC(N)=O)NC(=O)[C@H](Cc1c[nH]cn1)NC(=O)[C@H](C)NC(=O)[C@H](CC(C)C)NC(=O)[C@H](CCCCN)NC(=O)[C@H](CCC(N)=O)NC(=O)[C@@H](NC(=O)[C@@H](NC(=O)[C@@H]1CSSC[C@H](NC(=O)CNC(=O)[C@H](Cc2ccccc2)NC(=O)[C@H](CO)NC(=O)[C@H](CCCNC(=N)N)NC(=O)[C@H](CC(C)C)NC(=O)CNC(=O)[C@H](CCC(N)=O)NC(=O)[C@H](Cc2ccccc2)NC(=O)[C@H](CC(N)=O)NC(=O)[C@H](CC(N)=O)NC(=O)[C@H](CCSC)NC(=O)[C@H](CO)NC(=O)[C@H](CCC(N)=O)NC(=O)[C@H](CCCNC(=N)N)NC(=O)[C@@H](N)Cc2ccc(O)cc2)C(=O)N[C@@H](CCCNC(=N)N)C(=O)N[C@@H](Cc2ccccc2)C(=O)NCC(=O)N[C@@H]([C@@H](C)O)C(=O)N1)[C@@H](C)O)C(C)C)C(=O)N[C@@H](Cc1ccc(O)cc1)C(=O)N[C@@H](CCC(N)=O)C(=O)N[C@@H](Cc1ccccc1)C(=O)N[C@H](C(=O)N[C@@H](CC(=O)O)C(=O)N[C@@H](CCCCN)C(=O)N[C@@H](CC(=O)O)C(=O)N[C@@H](CCCCN)C(=O)N[C@@H](CC(=O)O)C(=O)N[C@@H](CC(N)=O)C(=O)N[C@H](C(=O)N[C@@H](C)C(=O)N1CCC[C@H]1C(=O)N[C@@H](CCCNC(=N)N)C(=O)N[C@@H](CO)C(=O)N[C@@H](CCCCN)C(=O)N[C@H](C(=O)N[C@@H](CO)C(=O)N1CCC[C@H]1C(=O)N[C@@H](CCC(N)=O)C(=O)NCC(=O)N[C@@H](Cc1ccc(O)cc1)C(N)=O)[C@@H](C)CC)C(C)C)[C@@H](C)O [AM, Adrenomedullin]		
